According to PMC5390315 (Scientific Reports, 2017):
Where “and” joins values, the source holds several entries; their conditions need not be identical. Identical values can stand only once.

Tested on: SEM cells
Experiment: Antiproliferative MTT assay, SEM
Format: cell-based, human
Conditions: 72 h, mean ± SE
Description: (§1) Human T-cell leukemia (Jurkat) and human B-cell leukemia (SEM and RS4;11) cells were grown in RPMI-1640 medium (Gibco, Milano, Italy). Breast adenocarcinoma (MCF-7), human cervix carcinoma (HeLa), human lung adenocarcinoma (A549) and human colon adenocarcinoma (HT-29) cells were grown in DMEM medium (Gibco, Milano, Italy), all supplemented with 115 units/mL penicillin G (Gibco, Milano, Italy), 115 μg/mL streptomycin (Invitrogen, Milano, Italy), and 10% fetal bovine serum (FBS; Invitrogen, Milano, Italy). Stock solutions (10 mM) of the different compounds were obtained by dissolving them in DMSO. Individual wells of a 96-well tissue culture microtiter plate were inoculated with 100 μL of complete medium containing 8 × 10^3 cells. The plates were incubated at 37 °C in a humidified 5% CO2 incubator for 18 h prior to the experiments. After medium removal, 100 μL of fresh medium containing the test compound at different concentrations was added to each well in triplicate and incubated at 37 °C for 72 h. The percentage of DMSO in the medium never exceeded 0.25%. This was also the maximum DMSO concentration in all cell-based assays described below.

**Q.** Which IC50 does the source give for “5-(3,4,5-Trimethoxyphenyl)-4-(4-chlorophenyl)-2-methyloxazole [Compound 4c]” here?
**A.** 2210 ± 256 nM

**Q.** With “5-(3,4,5-Trimethoxyphenyl)-4-(4-fluorophenyl)-2-methyloxazole [Compound 4b]” as the molecule, how does the IC50 read?
**A.** 9550 ± 2050 nM

**Q.** Which IC50 does the source give for “5-(3,4,5-Trimethoxyphenyl)-4-(3-methoxyphenyl)-2-methyloxazole [Compound 4f]” here?
**A.** 3630 ± 171 nM

Same assay, conditions: Homo sapiens, 72 h, mean ± SE

**Q.** For `COc1cc(-c2nc(C)oc2-c2ccc(C)cc2)cc(OC)c1OC` [Compound 4d, 4-(3,4,5-Trimethoxyphenyl)-2-methyl-5-p-tolyloxazole], which IC50 is on record?
**A.** 134 ± 39.5 nM

Tested on: Jurkat
Experiment: Antiproliferative MTT assay, Jurkat
Format: cell-based, human
Conditions: 72 h, mean ± SE
Description: as §1

**Q.** Which IC50 does the source give for “5-(3,4,5-Trimethoxyphenyl)-4-(4-chlorophenyl)-2-methyloxazole [Compound 4c]” here?
**A.** 5580 ± 888 nM

**Q.** For “5-(3,4,5-Trimethoxyphenyl)-4-(4-fluorophenyl)-2-methyloxazole [Compound 4b]”, which IC50 is on record?
**A.** > 10000 nM

**Q.** With “5-(3,4,5-Trimethoxyphenyl)-4-(3-methoxyphenyl)-2-methyloxazole [Compound 4f]” as the molecule, how does the IC50 read?
**A.** 5230 ± 88.2 nM

Same assay, conditions: Homo sapiens, Jurkat, 72 h, mean ± SE

**Q.** Which IC50 does the source give for `COc1cc(-c2nc(C)oc2-c2ccc(C)cc2)cc(OC)c1OC` [Compound 4d, 4-(3,4,5-Trimethoxyphenyl)-2-methyl-5-p-tolyloxazole] here?
**A.** 102 ± 22.6 nM

Tested on: not given
Experiment: not given
Conditions: not given

**Q.** Which melting point does the source give for `COc1cc(-c2nc(C)oc2-c2ccc(C)cc2)cc(OC)c1OC` [Compound 4d, 4-(3,4,5-Trimethoxyphenyl)-2-methyl-5-p-tolyloxazole] here?
**A.** 110 to 112 °C

Tested on: HT-29
Experiment: Antiproliferative MTT assay, HT-29
Format: cell-based, human
Conditions: 72 h, mean ± SE
Description: as §1

**Q.** With “5-(3,4,5-Trimethoxyphenyl)-4-(4-chlorophenyl)-2-methyloxazole [Compound 4c]” as the molecule, how does the IC50 read?
**A.** 1400 ± 384 nM

**Q.** With “5-(3,4,5-Trimethoxyphenyl)-4-(4-fluorophenyl)-2-methyloxazole [Compound 4b]” as the molecule, how does the IC50 read?
**A.** > 10000 nM

**Q.** Which IC50 does the source give for “5-(3,4,5-Trimethoxyphenyl)-4-(3-methoxyphenyl)-2-methyloxazole [Compound 4f]” here?
**A.** > 10000 nM

Same assay, conditions: Homo sapiens, HT-29, 72 h, mean ± SE

**Q.** With `COc1cc(-c2nc(C)oc2-c2ccc(C)cc2)cc(OC)c1OC` [Compound 4d, 4-(3,4,5-Trimethoxyphenyl)-2-methyl-5-p-tolyloxazole] as the molecule, how does the IC50 read?
**A.** 53 ± 24.6 nM

Tested on: MCF-7
Experiment: Antiproliferative MTT assay, MCF-7
Format: cell-based, human
Conditions: 72 h, mean ± SE
Description: as §1

**Q.** Which IC50 does the source give for “5-(3,4,5-Trimethoxyphenyl)-4-(4-chlorophenyl)-2-methyloxazole [Compound 4c]” here?
**A.** 2590 ± 447 nM

**Q.** Which IC50 does the source give for “5-(3,4,5-Trimethoxyphenyl)-4-(4-fluorophenyl)-2-methyloxazole [Compound 4b]” here?
**A.** > 10000 nM

**Q.** For “5-(3,4,5-Trimethoxyphenyl)-4-(3-methoxyphenyl)-2-methyloxazole [Compound 4f]”, which IC50 is on record?
**A.** > 10000 nM

Same assay, conditions: Homo sapiens, MCF7, 72 h, mean ± SE

**Q.** With `COc1cc(-c2nc(C)oc2-c2ccc(C)cc2)cc(OC)c1OC` [Compound 4d, 4-(3,4,5-Trimethoxyphenyl)-2-methyl-5-p-tolyloxazole] as the molecule, how does the IC50 read?
**A.** 244 ± 74.2 nM

Tested on: HeLa
Experiment: Antiproliferative MTT assay, HeLa
Format: cell-based, human
Conditions: 72 h, mean ± SE
Description: as §1

**Q.** Which IC50 does the source give for “5-(3,4,5-Trimethoxyphenyl)-4-(4-chlorophenyl)-2-methyloxazole [Compound 4c]” here?
**A.** 2820 ± 169 nM

**Q.** Which IC50 does the source give for “5-(3,4,5-Trimethoxyphenyl)-4-(4-fluorophenyl)-2-methyloxazole [Compound 4b]” here?
**A.** > 10000 nM

**Q.** Which IC50 does the source give for “5-(3,4,5-Trimethoxyphenyl)-4-(3-methoxyphenyl)-2-methyloxazole [Compound 4f]” here?
**A.** > 10000 nM

Same assay, conditions: Homo sapiens, HeLa, 72 h, mean ± SE

**Q.** Which IC50 does the source give for `COc1cc(-c2nc(C)oc2-c2ccc(C)cc2)cc(OC)c1OC` [Compound 4d, 4-(3,4,5-Trimethoxyphenyl)-2-methyl-5-p-tolyloxazole] here?
**A.** 31 ± 16 nM

Tested on: panel of seven human tumor cell lines
Experiment: Antiproliferative activity, range over panel of seven human tumor cell lines
Format: cell-based
Conditions: Homo sapiens, read-out: IC50 values, range over the cell line panel
Description: as §1

**Q.** With `COc1cc(-c2nc(C)oc2-c2ccc(C)cc2)cc(OC)c1OC` [Compound 4d, 4-(3,4,5-Trimethoxyphenyl)-2-methyl-5-p-tolyloxazole] as the molecule, how does the IC50 read?
**A.** 25 to 243 nM

Same assay, conditions: read-out: IC50 values against all cell lines screened

**Q.** With “5-(3,4,5-Trimethoxyphenyl)-4-(4-fluorophenyl)-2-methyloxazole [Compound 4b]” as the molecule, how does the IC50 read?
**A.** > 9000 nM

Tested on: tubulin
Experiment: Inhibition of [3H]colchicine binding to tubulin
Conditions: 1 μM drug; tubulin 1 μM, [3H]colchicine 5 μM
Description: (§2) To evaluate the effect of the compounds on tubulin assembly in vitro[41], varying concentrations of compounds were preincubated with 10 μM bovine brain tubulin in 0.8 M monosodium glutamate (pH adjusted to 6.6 with HCl in a 2.0 M stock solution) at 30 °C and then cooled to 0 °C. After addition of 0.4 mM GTP, the mixtures were transferred to 0 °C cuvettes in a recording spectrophotometer and warmed to 30 °C. Tubulin assembly was followed turbidimetrically at 350 nm. […] The capacity of the test compounds to inhibit colchicine binding to tubulin was measured as described, except that the reaction mixtures contained 1 μM tubulin, 5 μM [^3H]colchicine and 1 or 5 μM test compound.

**Q.** For `COc1cc(-c2nc(C)oc2-c2ccc(C)cc2)cc(OC)c1OC` [Compound 4d, 4-(3,4,5-Trimethoxyphenyl)-2-methyl-5-p-tolyloxazole], which “Colchicine binding % inhibition ± S.D, 1 μM drug” value is on record?
**A.** 55 ± 3%

Same assay, conditions: 5 μM drug; tubulin 1 μM, [3H]colchicine 5 μM

**Q.** With `COc1cc(-c2nc(C)oc2-c2ccc(C)cc2)cc(OC)c1OC` [Compound 4d, 4-(3,4,5-Trimethoxyphenyl)-2-methyl-5-p-tolyloxazole] as the molecule, how does the “Colchicine binding % inhibition ± S.D, 5 μM drug” value read?
**A.** 86% and 82 ± 3%

Tested on: A549
Experiment: Antiproliferative MTT assay, A549
Format: cell-based, human
Conditions: 72 h, mean ± SE
Description: as §1

**Q.** Which IC50 does the source give for “5-(3,4,5-Trimethoxyphenyl)-4-(4-chlorophenyl)-2-methyloxazole [Compound 4c]” here?
**A.** 8780 ± 2310 nM

**Q.** With “5-(3,4,5-Trimethoxyphenyl)-4-(4-fluorophenyl)-2-methyloxazole [Compound 4b]” as the molecule, how does the IC50 read?
**A.** > 10000 nM

**Q.** Which IC50 does the source give for “5-(3,4,5-Trimethoxyphenyl)-4-(3-methoxyphenyl)-2-methyloxazole [Compound 4f]” here?
**A.** > 10000 nM

Same assay, conditions: Homo sapiens, A549, 72 h, mean ± SE

**Q.** For `COc1cc(-c2nc(C)oc2-c2ccc(C)cc2)cc(OC)c1OC` [Compound 4d, 4-(3,4,5-Trimethoxyphenyl)-2-methyl-5-p-tolyloxazole], which IC50 is on record?
**A.** 92.3 ± 21.5 nM

Tested on: RS 4;11
Experiment: Antiproliferative MTT assay, RS 4;11
Format: cell-based, human
Conditions: 72 h, mean ± SE
Description: as §1

**Q.** Which IC50 does the source give for “5-(3,4,5-Trimethoxyphenyl)-4-(4-chlorophenyl)-2-methyloxazole [Compound 4c]” here?
**A.** 840 ± 260 nM

**Q.** Which IC50 does the source give for “5-(3,4,5-Trimethoxyphenyl)-4-(4-fluorophenyl)-2-methyloxazole [Compound 4b]” here?
**A.** > 10000 nM

**Q.** For “5-(3,4,5-Trimethoxyphenyl)-4-(3-methoxyphenyl)-2-methyloxazole [Compound 4f]”, which IC50 is on record?
**A.** 5330 ± 167 nM

Same assay, conditions: Homo sapiens, RS4-11, 72 h, mean ± SE

**Q.** Which IC50 does the source give for `COc1cc(-c2nc(C)oc2-c2ccc(C)cc2)cc(OC)c1OC` [Compound 4d, 4-(3,4,5-Trimethoxyphenyl)-2-methyl-5-p-tolyloxazole] here?
**A.** 25.3 ± 3.2 nM

Tested on: bovine brain tubulin
Experiment: Inhibition of tubulin polymerization
Format: biochemical
Conditions: tubulin at 10 μM; read-out: Tubulin assembly IC50 ± S.D
Description: as §2

**Q.** With `COc1cc(-c2nc(C)oc2-c2ccc(C)cc2)cc(OC)c1OC` [Compound 4d, 4-(3,4,5-Trimethoxyphenyl)-2-methyl-5-p-tolyloxazole] as the molecule, how does the IC50 read?
**A.** 660 nM
